Measured values as given in patent publication US8435980B2 (AbbVie Inc., priority 2009, dated 2013).

Biological target: T1, Cdc7 (BEV coexpressed huCDC7/DBF4) (Homo sapiens, UniProt O00311)
T1 construct: made in house; host or cells: BEV (baculovirus expression vector) co-expression; insect cells are implied but no cell line is named
Test: Cdc7 enzyme inhibition assay ([33P]ATP, biotinylated peptide substrate, FlashPlate)
Type: biochemical
Settings: Table 3; enzyme inhibition data (Ki)
Description: Cdc7 (BEV coexpressed huCDC7/DBF4) is prepared internally. Cdc7 assays are conducted as follows with final concentrations as listed. […] Reactions are quenched after 1 hr by the addition of 90 μL stop buffer (50 mM EDTA, 2M NaCl). […] (Ki) for exemplary compounds.

T1 sequence (O00311 whole entry): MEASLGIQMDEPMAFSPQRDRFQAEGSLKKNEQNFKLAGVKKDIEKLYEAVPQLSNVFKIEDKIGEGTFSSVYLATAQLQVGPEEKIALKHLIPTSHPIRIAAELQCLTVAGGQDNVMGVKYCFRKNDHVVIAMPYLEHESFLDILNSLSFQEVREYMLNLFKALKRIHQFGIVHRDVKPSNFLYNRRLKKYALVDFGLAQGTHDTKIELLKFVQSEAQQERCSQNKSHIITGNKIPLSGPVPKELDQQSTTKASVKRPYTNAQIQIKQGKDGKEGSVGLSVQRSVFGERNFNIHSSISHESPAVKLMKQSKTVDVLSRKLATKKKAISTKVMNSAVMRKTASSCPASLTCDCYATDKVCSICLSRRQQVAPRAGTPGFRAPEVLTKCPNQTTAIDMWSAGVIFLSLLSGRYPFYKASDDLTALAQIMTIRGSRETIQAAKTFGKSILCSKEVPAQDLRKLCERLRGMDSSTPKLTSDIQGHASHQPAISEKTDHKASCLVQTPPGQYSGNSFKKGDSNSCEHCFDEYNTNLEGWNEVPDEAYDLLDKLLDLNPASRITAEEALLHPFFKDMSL
T1 sequence (Q9UBU7 whole entry partner): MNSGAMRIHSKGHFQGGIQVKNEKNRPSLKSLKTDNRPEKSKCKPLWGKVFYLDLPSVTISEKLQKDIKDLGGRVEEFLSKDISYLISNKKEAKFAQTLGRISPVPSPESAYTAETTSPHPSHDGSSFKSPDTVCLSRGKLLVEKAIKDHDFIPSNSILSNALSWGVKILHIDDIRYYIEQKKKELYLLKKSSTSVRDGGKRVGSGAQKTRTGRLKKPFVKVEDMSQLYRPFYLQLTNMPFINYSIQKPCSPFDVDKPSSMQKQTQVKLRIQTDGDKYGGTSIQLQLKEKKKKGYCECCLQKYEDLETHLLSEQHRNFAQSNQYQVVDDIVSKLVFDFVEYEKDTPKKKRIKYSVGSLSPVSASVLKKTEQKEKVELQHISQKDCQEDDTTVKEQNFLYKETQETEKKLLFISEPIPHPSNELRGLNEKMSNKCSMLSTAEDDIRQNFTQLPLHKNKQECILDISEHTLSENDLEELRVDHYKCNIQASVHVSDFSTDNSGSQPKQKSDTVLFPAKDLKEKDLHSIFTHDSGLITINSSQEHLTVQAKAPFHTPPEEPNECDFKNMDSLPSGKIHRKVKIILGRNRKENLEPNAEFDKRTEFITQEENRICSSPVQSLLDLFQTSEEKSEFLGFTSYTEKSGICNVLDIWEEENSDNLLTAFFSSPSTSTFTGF

Row | Ki | Molecule
1 | < 10 nM | O=C1NCCN1C(=O)N[C@H]1CC[C@H](Nc2nc(Cl)cc(-c3c[nH]c4ncccc34)n2)CC1 [Example 473, N-(trans-4-{[4-chloro-6-(1H-pyrrolo[2,3-b]pyridin-3-yl)pyrimidin-2-yl]amino}cyclohexyl)-2-oxoimidazolidine-1-carboxamide]
2 | < 10 nM | OCCOCCNc1nc(Cl)cc(-c2c[nH]c3ncccc23)n1 [Example 474, 2-(2-{[4-chloro-6-(1H-pyrrolo[2,3-b]pyridin-3-yl)pyrimidin-2-yl]amino}ethoxy)ethanol]
3 | < 10 nM | NCCOCCNc1nc(Cl)cc(-c2c[nH]c3ncccc23)n1 [Example 475, N-[2-(2-aminoethoxy)ethyl]-4-chloro-6-(1H-pyrrolo[2,3-b]pyridin-3-yl)pyrimidin-2-amine]
4 | < 10 nM | Clc1cc(-c2c[nH]c3ncccc23)nc(N[C@H]2CC[C@H](NC3CCCC3)CC2)n1 [Example 477, trans-N-[4-chloro-6-(1H-pyrrolo[2,3-b]pyridin-3-yl)pyrimidin-2-yl]-N′-cyclopentylcyclohexane-1,4-diamine]
5 | < 10 nM | O=C(CNC1CCCC1)N[C@H]1CC[C@H](Nc2nc(Cl)cc(-c3c[nH]c4ncccc34)n2)CC1 [Example 478, N-(trans-4-{[4-chloro-6-(1H-pyrrolo[2,3-b]pyridin-3-yl)pyrimidin-2-yl]amino}cyclohexyl)-N~2~-cyclopentylglycinamide]
6 | < 10 nM | CCCS(=O)(=O)N[C@H]1CC[C@H](Nc2nc(Cl)cc(-c3c[nH]c4ncccc34)n2)CC1 [Example 479, N-(trans-4-{[4-chloro-6-(1H-pyrrolo[2,3-b]pyridin-3-yl)pyrimidin-2-yl]amino}cyclohexyl)propane-1-sulfonamide]
7 | 10 to 100 nM | CC(=O)N[C@H]1CC[C@H](Oc2nc(Cl)cc(-c3c[nH]c4ncccc34)n2)CC1 [Example 480, N-(trans-4-{[4-chloro-6-(1H-pyrrolo[2,3-b]pyridin-3-yl)pyrimidin-2-yl]oxy}cyclohexyl)acetamide]
8 | < 10 nM | O=S(=O)(N[C@H]1CC[C@H](Nc2nc(Cl)cc(-c3c[nH]c4ncccc34)n2)CC1)c1ccsc1 [Example 481, N-(trans-4-{[4-chloro-6-(1H-pyrrolo[2,3-b]pyridin-3-yl)pyrimidin-2-yl]amino}cyclohexyl)thiophene-3-sulfonamide]
9 | < 10 nM | O=S(=O)(N[C@H]1CC[C@H](Nc2nc(Cl)cc(-c3c[nH]c4ncccc34)n2)CC1)c1cccs1 [Example 482, N-(trans-4-{[4-chloro-6-(1H-pyrrolo[2,3-b]pyridin-3-yl)pyrimidin-2-yl]amino}cyclohexyl)thiophene-2-sulfonamide]

More lines, now with the values behind:

Row | Molecule | Ki
10 | O=S(=O)(N[C@H]1CC[C@H](Nc2cc(-c3c[nH]c4ncc(-c5cccnc5)cc34)cc(Cl)n2)CC1)C1CC1 [Example 453, N-[trans-4-({6-chloro-4-[5-(pyridin-3-yl)-1H-pyrrolo[2,3-b]pyridin-3-yl]pyridin-2-yl}amino)cyclohexyl]cyclopropanesulfonamide] | < 10 nM
11 | NS(=O)(=O)c1cccc(-c2cnc3[nH]cc(-c4cc(Cl)nc(N[C@H]5CC[C@H](NS(=O)(=O)C6CC6)CC5)c4)c3c2)c1 [Example 454, 3-{3-[2-chloro-6-({trans-4-[(cyclopropylsulfonyl)amino]cyclohexyl}amino)pyridin-4-yl]-1H-pyrrolo[2,3-b]pyridin-5-yl}benzenesulfonamide] | < 10 nM
12 | O=S(=O)(N[C@H]1CC[C@H](Nc2cc(-c3c[nH]c4ncc(-c5cncnc5)cc34)cc(Cl)n2)CC1)C1CC1 [Example 455, N-[trans-4-({6-chloro-4-[5-(pyrimidin-5-yl)-1H-pyrrolo[2,3-b]pyridin-3-yl]pyridin-2-yl}amino)cyclohexyl] cyclopropanesulfonamide] | < 10 nM
13 | C[C@@H](Nc1nc(Cl)cc(-c2c[nH]c3ncccc23)n1)c1ccccc1 [Example 456, 4-chloro-N-[(1R)-1-phenylethyl]-6-(1H-pyrrolo[2,3-b]pyridin-3-yl)pyrimidin-2-amine] | < 10 nM
14 | Oc1cccc(CNc2nc(Cl)cc(-c3c[nH]c4ncccc34)n2)c1 [Example 457, 3-({[4-chloro-6-(1H-pyrrolo[2,3-b]pyridin-3-yl)pyrimidin-2-yl]amino}methyl)phenol] | < 10 nM
15 | Oc1ccc(CNc2nc(Cl)cc(-c3c[nH]c4ncccc34)n2)cc1 [Example 458, 4-({[4-chloro-6-(1H-pyrrolo[2,3-b]pyridin-3-yl)pyrimidin-2-yl]amino}methyl)phenol] | < 10 nM
16 | CN(C)C1CCC(Nc2nc(Cl)cc(-c3c[nH]c4ncccc34)n2)CC1 (centres unmarked) [Example 459, N′-[4-chloro-6-(1H-pyrrolo[2,3-b]pyridin-3-yl)pyrimidin-2-yl]-N,N-dimethylcyclohexane-1,4-diamine] | < 10 nM
17 | NC1CCC(CC2CCC(Nc3nc(Cl)cc(-c4c[nH]c5ncccc45)n3)CC2)CC1 (centres unmarked) [Example 465, N-{4-[(4-aminocyclohexyl)methyl]cyclohexyl}-4-chloro-6-(1H-pyrrolo[2,3-b]pyridin-3-yl)pyrimidin-2-amine] | < 10 nM
18 | NCCNc1nc(Cl)cc(-c2c[nH]c3ncccc23)n1 [Example 466, N-[4-chloro-6-(1H-pyrrolo[2,3-b]pyridin-3-yl)pyrimidin-2-yl]ethane-1,2-diamine] | < 10 nM
19 | OCCNc1nc(Cl)cc(-c2c[nH]c3ncccc23)n1 [Example 467, 2-{[4-chloro-6-(1H-pyrrolo[2,3-b]pyridin-3-yl)pyrimidin-2-yl]amino}ethanol] | < 10 nM
20 | NCCOCCOCCNc1nc(Cl)cc(-c2c[nH]c3ncccc23)n1 [Example 468, N-{2-[2-(2-aminoethoxy)ethoxy]ethyl}-4-chloro-6-(1H-pyrrolo[2,3-b]pyridin-3-yl)pyrimidin-2-amine] | < 10 nM
21 | O=C(NC1CCCC1)N[C@H]1CC[C@H](Nc2nc(Cl)cc(-c3c[nH]c4ncccc34)n2)CC1 [Example 470, 1-(trans-4-{[4-chloro-6-(1H-pyrrolo[2,3-b]pyridin-3-yl)pyrimidin-2-yl]amino}cyclohexyl)-3-cyclopentylurea] | < 10 nM
22 | CN(C)c1ccc(NC(=O)N[C@H]2CC[C@H](Nc3nc(Cl)cc(-c4c[nH]c5ncccc45)n3)CC2)cc1 [Example 471, 1-(trans-4-{[4-chloro-6-(1H-pyrrolo[2,3-b]pyridin-3-yl)pyrimidin-2-yl]amino}cyclohexyl)-3-[4-(dimethylamino)phenyl]urea] | < 10 nM
23 | O=C(CN1C(=O)c2ccccc2C1=O)N[C@H]1CC[C@H](Nc2nc(Cl)cc(-c3c[nH]c4ncccc34)n2)CC1 [Example 472, N-(trans-4-{[4-chloro-6-(1H-pyrrolo[2,3-b]pyridin-3-yl)pyrimidin-2-yl]amino}cyclohexyl)-2-(1,3-dioxo-1,3-dihydro-2H-isoindol-2-yl)acetamide] | < 10 nM
24 | N-(3-{[6-chloro-4-(1H-pyrrolo[2,3-b]pyridin-3-yl)pyridin-2-yl]amino}cyclohexyl)-2-(dimethylamino)ethanesulfonamide [Example 154] | < 10 nM
25 | N-{2-[(3-{[6-chloro-4-(1H-pyrrolo[2,3-b]pyridin-3-yl)pyridin-2-yl]amino}cyclohexyl)sulfamoyl]ethyl}benzamide [Example 169] | < 10 nM
26 | {4-[(4-{[6-chloro-4-(1H-pyrrolo[2,3-b]pyridin-3-yl)pyridin-2-yl]amino}cyclohexyl)amino]piperidin-1-yl}(phenyl)methanone [Example 177] | < 10 nM
